Measured values: patent publication US20220340542A1, “SALTS OF OMECAMTIV MECARBIL AND SOLID FORMS THEREOF” (SYNTHON B.V., priority 2019, published 2022)
Counter-ions that a name gives are not always drawn.

Columns and labels:
[1] = Solubility of Omecamtiv mecarbil salts in water solution (aqueous buffer) at different pH; type: physicochemical; settings: for Category of solubility (Descriptive Term): USP / Ph. Eur. descriptive terms; for Solubility in comparison with Omecamtiv mecarbil dihydrochloride monohydrate salt: water solution at pH 1.2, 4.5 and 6.8
Protocol: The solubility of prepared salts was tested in water solution at different pH (1.2, 4.5 and 6.8) and compared to Omecamtiv mecarbil dihydrochloride monohydrate salt prepared according to a procedure disclosed in WO2006009726 application. It can be concluded that solubilities of Omecamtiv mecarbil maleic acid salt, Form A, Omecamtiv mecarbil fumaric acid (1:1), Form I, Omecamtiv mecarbil malonic acid (1:1), Form I, Omecamtiv mecarbil adipic acid (1:1.5), Form I, Omecamtiv mecarbil sulfuric acid (1:1), Forms I, II and III salts are lower in comparison with Omecamtiv mecarbil dihydrochloride monohydrate salt.

[2] = Solid form stability when kept at elevated temperature and relative humidity; type: physicochemical; settings: 70% to 100% relative humidity, between 20 and 40 days
Protocol: The Form II can be characterized by XRPD pattern having 2θ values 5.0°, 9.3° and 16.5° degrees 2 theta (f 0.2 degrees 2 theta). The solid Form II can be also characterized by XRPD pattern having 2θ values 5.0°, 9.3°, 16.5°, 18.6° and 24.6° degrees 2 theta (±0.2 degrees 2 theta). The solid form can be further characterized by XRPD pattern described in the following table:
The Form III can be characterized by XRPD pattern having […] 14.3°, 19.3° and 25.8° degrees 2 theta (±0.2 degrees 2 theta). The solid […] can be also characterized by XRPD pattern having 2θ values 5.4°, 7.5°, 14.3°, 19.3° and 25.8° degrees 2 theta (±0.2 degrees 2 theta). The solid form can be further characterized by XRPD pattern described in the following table: […]

Row | Category of solubility (Descriptive Term) ([1]; aqueous buffer pH 1.2) | Category of solubility (Descriptive Term) ([1]; aqueous buffer pH 4.5) | Category of solubility (Descriptive Term) ([1]; aqueous buffer pH 6.8) | Solubility in comparison with Omecamtiv mecarbil dihydrochloride monohydrate salt ([1]; Form I) | Solubility in comparison with Omecamtiv mecarbil dihydrochloride monohydrate salt ([1]; listed as Omecamtiv mecarbil sulfuric acid (1:1), Forms I, II and III) | Solubility in comparison with Omecamtiv mecarbil dihydrochloride monohydrate salt ([1]; Form A) | SMILES | Solid form transformation on storage ([2]; temperature between 40° C. and 70° C.) | Solid form transformation on storage ([2]; temperature between 40° C. and 80° C.)
1 | Freely soluble ((100-1000 mg/mL)) | Freely soluble ((100-1000 mg/mL)) | Freely soluble ((100-1000 mg/mL)) | comparable | – | – | COC(=O)N1CCN(Cc2cccc(NC(=O)Nc3ccc(C)nc3)c2F)CC1 [Salt with fumaric acid (1:2), Form I, Omecamtiv mecarbil fumaric acid (1:2) salt] | – | –
2 | Sparingly soluble ((10-33 mg/mL)) | Sparingly soluble ((10-33 mg/mL)) | Very slightly soluble ((0.1-1 mg/mL)) | lower | – | – | COC(=O)N1CCN(Cc2cccc(NC(=O)Nc3ccc(C)nc3)c2F)CC1 [Salt with adipic acid (1:1.5), Form I, Omecamtiv mecarbil adipic acid (1:1.5) salt] | – | –
3 | Sparingly soluble ((10-33 mg/mL)) | Sparingly soluble ((10-33 mg/mL)) | Sparingly soluble ((10-33 mg/mL)) | – | lower | – | COC(=O)N1CCN(Cc2cccc(NC(=O)Nc3ccc(C)nc3)c2F)CC1 [Salt with sulfuric acid (1:1), Forms I, II and III] [Omecamtiv mecarbil sulfuric acid salt] | – | –
4 | Very slightly soluble ((0.1-1 mg/mL)) | Sparingly soluble ((10-33 mg/mL)) | Sparingly soluble ((10-33 mg/mL)) | lower | – | – | COC(=O)N1CCN(Cc2cccc(NC(=O)Nc3ccc(C)nc3)c2F)CC1 [Salt with fumaric acid (1:1), Form I, Omecamtiv mecarbil fumaric acid (1:1) salt] | transformed to Omecamtiv mecarbil fumaric acid (1:1), Form II | –
5 | Sparingly soluble ((10-33 mg/mL)) | Sparingly soluble ((10-33 mg/mL)) | Very slightly soluble ((0.1-1 mg/mL)) | – | – | lower | COC(=O)N1CCN(Cc2cccc(NC(=O)Nc3ccc(C)nc3)c2F)CC1 [Salt with maleic acid, Form A, Omecamtiv mecarbil maleic acid salt] | – | –
6 | Sparingly soluble ((10-33 mg/mL)) | Sparingly soluble ((10-33 mg/mL)) | Very slightly soluble ((0.1-1 mg/mL)) | lower | – | – | COC(=O)N1CCN(Cc2cccc(NC(=O)Nc3ccc(C)nc3)c2F)CC1 [Salt with malonic acid (1:1), Form I, Omecamtiv mecarbil malonic acid (1:1) salt] | – | –
7 | Freely soluble ((100-1000 mg/mL)) | Freely soluble ((100-1000 mg/mL)) | Freely soluble ((100-1000 mg/mL)) | – | – | – | COC(=O)N1CCN(Cc2cccc(NC(=O)Nc3ccc(C)nc3)c2F)CC1 [Salt with HC1, Omecamtiv mecarbil dihydrochloride monohydrate salt, reference compound] | – | –
8 | – | – | – | – | – | – | COC(=O)N1CCN(Cc2cccc(NC(=O)Nc3ccc(C)nc3)c2F)CC1 [Omecamtiv mecarbil sulfuric acid salt] | – | transformed to Omecamtiv mecarbil sulfuric acid salt, Form III
